Results published in patent publication US20260262643A1, “HERBICIDAL BENZOXAZINES” (FMC CORPORATION, priority 2022, published 2026).

Key:
oat, wild [1] = test: Test C postemergence; type: in vivo, Avena fatua; details: 125 g ai/ha, postemergence, 10 days; 0 to 100 scale, 0 no effect, 100 complete control
Procedure, shortened: (§1)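 Seeds sown in loam soil–sand blend received a directed preemergence soil spray of test chemical in non-phytotoxic solvent with surfactant; postemergence plants (2–10 cm, one- to two-leaf stage) were sprayed with the same formulation. Greenhouse-held 10 days, then visually rated for injury versus untreated controls, 0 (no effect) to 100 (complete control).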

horseweed = test: Test C postemergence; type: in vivo, Erigeron canadensis; details: 10 days
Procedure, shortened: as §1

ducksalad = test: Test D flooded paddy test; type: in vivo, Heteranthera limosa; details: 250 g ai/ha, applied to paddy water, visual rating after 13 to 14 days, scale 0 to 100 (0 no effect, 100 complete control)
Procedure, shortened: (§2)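 Post-flood water application at the 2-leaf stage; 3 cm flood depth kept constant; visual control rating 0–100 after 13–14 days greenhouse growth.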

ragweed [2] = test: Test C preemergence; type: in vivo, Ambrosia artemisiifolia; details: preemergence, 0 to 100 scale (0 no effect, 100 complete control)
Procedure, shortened: as §1

pigweed, palmer [3] = test: Test C preemergence; type: in vivo, Amaranthus palmeri; details: preemergence, 0 to 100 scale (0 no effect, 100 complete control)
Procedure, shortened: as §1

blackgrass [4] = test: Test C preemergence; type: in vivo, Alopecurus myosuroides; details: 0 to 100 scale (0 no effect, 100 complete control); for Plant response rating, Blackgrass: Preemergence, 500 g ai/ha, visual rating after 10 days; for Blackgrass plant response rating: Test C, preemergence, 125 g ai/ha
Procedure, shortened: as §1

barnyardgrass [5] = test: Test D flooded paddy test; type: in vivo, Echinochloa crus-galli; details: 250 g ai/ha, applied to paddy water, visual rating after 13 to 14 days, scale 0 to 100 (0 no effect, 100 complete control)
Procedure, shortened: as §2

green foxtail [6] = test: Test C postemergence; type: in vivo, Setaria viridis; details: 10 days
Procedure, shortened: as §1

kochia [7] = test: Test C preemergence; type: in vivo, Bassia scoparia; details: preemergence, 0 to 100 scale (0 no effect, 100 complete control)
Procedure, shortened: as §1

soybean [8] = test: Test C preemergence; type: in vivo, Glycine max; details: preemergence, 0 to 100 scale (0 no effect, 100 complete control)
Procedure, shortened: as §1

galium = test: Test C postemergence; type: in vivo, Galium aparine; details: 10 days
Procedure, shortened: as §1

corn [9] = test: Test C postemergence; type: in vivo, Zea mays; details: 10 days
Procedure, shortened: as §1

ryegrass, Italian [10] = test: Test C preemergence; type: in vivo, Lolium multiflorum; details: preemergence, 0 to 100 scale (0 no effect, 100 complete control)
Procedure, shortened: as §1

ryegrass, Italian [11] = test: Test C postemergence; type: in vivo, Lolium multiflorum; details: 125 g ai/ha, postemergence, 10 days; 0 to 100 scale, 0 no effect, 100 complete control
Procedure, shortened: as §1

wheat [12] = test: Test C preemergence; type: in vivo, Triticum aestivum; details: preemergence, 0 to 100 scale (0 no effect, 100 complete control)
Procedure, shortened: as §1

blackgrass [13] = test: Test C postemergence; type: in vivo, Alopecurus myosuroides; details: 10 days
Procedure, shortened: as §1

ragweed [14] = test: Test C postemergence; type: in vivo, Ambrosia artemisiifolia; details: 125 g ai/ha, postemergence, 10 days; 0 to 100 scale, 0 no effect, 100 complete control
Procedure, shortened: as §1

barnyardgrass [15] = test: Test C preemergence; type: in vivo, Echinochloa crusgalli; details: 0 to 100 scale (0 no effect, 100 complete control); for Plant response rating, Barnyardgrass: Preemergence, 500 g ai/ha, visual rating after 10 days; for Barnyardgrass plant response rating: Test C, preemergence, 125 g ai/ha
Procedure, shortened: as §1

pigweed, palmer [16] = test: Test C postemergence; type: in vivo, Amaranthus palmeri; details: 125 g ai/ha, postemergence, 10 days; 0 to 100 scale, 0 no effect, 100 complete control
Procedure, shortened: as §1

wheat [17] = test: Test C postemergence; type: in vivo, Triticum aestivum; details: 125 g ai/ha, postemergence, 10 days; 0 to 100 scale, 0 no effect, 100 complete control
Procedure, shortened: as §1

green foxtail [18] = test: Test C preemergence; type: in vivo, Setaria viridis; details: preemergence, 0 to 100 scale (0 no effect, 100 complete control)
Procedure, shortened: as §1

sedge, umbrella = test: Test D flooded paddy test; type: in vivo, Cyperus difformis; details: 250 g ai/ha, applied to paddy water, visual rating after 13 to 14 days, scale 0 to 100 (0 no effect, 100 complete control)
Procedure, shortened: as §2

rice = test: Test D flooded paddy test; type: in vivo, Oryza sativa; details: 250 g ai/ha, applied to paddy water, visual rating after 13 to 14 days, scale 0 to 100 (0 no effect, 100 complete control)
Procedure, shortened: as §2

barnyardgrass [19] = test: Test C postemergence; type: in vivo, Echinochloa crusgalli; details: 10 days
Procedure, shortened: as §1

soybean [20] = test: Test C postemergence; type: in vivo, Glycine max; details: 125 g ai/ha, postemergence, 10 days; 0 to 100 scale, 0 no effect, 100 complete control
Procedure, shortened: as §1

corn [21] = test: Test C preemergence; type: in vivo, Zea mays; details: preemergence, 0 to 100 scale (0 no effect, 100 complete control)
Procedure, shortened: as §1

oat, wild [22] = test: Test C preemergence; type: in vivo, Avena fatua; details: preemergence, 0 to 100 scale (0 no effect, 100 complete control)
Procedure, shortened: as §1

kochia [23] = test: Test C postemergence; type: in vivo, Bassia scoparia; details: 125 g ai/ha, postemergence, 10 days; 0 to 100 scale, 0 no effect, 100 complete control
Procedure, shortened: as §1

[24] = 125 g ai/ha, postemergence, 0 to 100 scale, 0 no effect, 100 complete control
[25] = Postemergence, 500 g ai/ha, visual 0 to 100 scale (0 no effect, 100 complete control)

Compound: CCc1ncn(-c2ccc(OC)c(C(=S)N3C[C@H](C)Oc4c(C)cccc43)c2)n1 [Compound 271]
- Plant response rating, Oat, Wild (oat, wild [1]): 80
- Plant response rating, Horseweed (horseweed; [24]): 50
- Plant response rating, Horseweed (horseweed; [25]): 90
- Plant response rating, Ducksalad (Flood) (ducksalad): 85
- Ragweed plant response rating (ragweed [2]; 500 g ai/ha): 100
- Ragweed plant response rating (ragweed [2]; Test C, 125 g ai/ha): 10
- Pigweed, Palmer plant response rating (pigweed, palmer [3]; 500 g ai/ha): 100
- Pigweed, Palmer plant response rating (pigweed, palmer [3]; Test C, 125 g ai/ha): 100
- Plant response rating, Blackgrass (blackgrass [4]): 60
- Blackgrass plant response rating (blackgrass [4]): 20
- Plant response rating, Barnyardgrass (Flood) (barnyardgrass [5]): 0
- Plant response rating, Foxtail, Green (green foxtail [6]; [24]): 90
- Plant response rating, Foxtail, Green (green foxtail [6]; [25]): 90
- Kochia plant response rating (kochia [7]; 500 g ai/ha): 100
- Kochia plant response rating (kochia [7]; Test C, 125 g ai/ha): 30
- Soybean plant response rating (soybean [8]; 500 g ai/ha): 100
- Soybean plant response rating (soybean [8]; Test C, 125 g ai/ha): 70
- Plant response rating, Galium (galium; [24]): 90
- Plant response rating, Galium (galium; [25]): 100
- Plant response rating, Corn (corn [9]; [24]): 50
- Plant response rating, Corn (corn [9]; [25]): 90
- Ryegrass, Italian plant response rating (ryegrass, Italian [10]; 500 g ai/ha): 90
- Ryegrass, Italian plant response rating (ryegrass, Italian [10]; Test C, 125 g ai/ha): 80
- Plant response rating, Ryegrass, Italian (ryegrass, Italian [11]): 60
- Wheat plant response rating (wheat [12]; 500 g ai/ha): 80
- Wheat plant response rating (wheat [12]; Test C, 125 g ai/ha): 20
- Plant response rating, Blackgrass (blackgrass [13]; [24]): 70
- Plant response rating, Blackgrass (blackgrass [13]; [25]): 90
- Plant response rating, Ragweed (ragweed [14]): 50
- Plant response rating, Barnyardgrass (barnyardgrass [15]): 100
- Barnyardgrass plant response rating (barnyardgrass [15]): 100
- Plant response rating, Pigweed, Palmer (pigweed, palmer [16]): 90
- Plant response rating, Wheat (wheat [17]): 70
- Foxtail, Green plant response rating (green foxtail [18]; 500 g ai/ha): 100
- Foxtail, Green plant response rating (green foxtail [18]; Test C, 125 g ai/ha): 100
- Plant response rating, Sedge, Umbrella (Flood) (sedge, umbrella): 100
- Plant response rating, Rice (Flood) (rice): 10
- Plant response rating, Barnyardgrass (barnyardgrass [19]; [24]): 70
- Plant response rating, Barnyardgrass (barnyardgrass [19]; [25]): 90
- Plant response rating, Soybean (soybean [20]): 100
- Corn plant response rating (corn [21]; 500 g ai/ha): 0
- Corn plant response rating (corn [21]; Test C, 125 g ai/ha): 0
- Oat, Wild plant response rating (oat, wild [22]; 500 g ai/ha): 80
- Oat, Wild plant response rating (oat, wild [22]; Test C, 125 g ai/ha): 30
- Plant response rating, Kochia (kochia [23]): 60

Compound: Cc1ccc(-n2cnc(CC3CC3)n2)cc1C(=O)N1C[C@H](C)Oc2c(Cl)cccc21 [Compound 273]
- Plant response rating, Oat, Wild (oat, wild [1]): 0
- Plant response rating, Horseweed (horseweed; [24]): 0
- Plant response rating, Horseweed (horseweed; [25]): 40
- Plant response rating, Ducksalad (Flood) (ducksalad): 15
- Ragweed plant response rating (ragweed [2]; 500 g ai/ha): 0
- Ragweed plant response rating (ragweed [2]; Test C, 125 g ai/ha): 0
- Pigweed, Palmer plant response rating (pigweed, palmer [3]; 500 g ai/ha): 100
- Pigweed, Palmer plant response rating (pigweed, palmer [3]; Test C, 125 g ai/ha): 90
- Plant response rating, Blackgrass (blackgrass [4]): 50
- Blackgrass plant response rating (blackgrass [4]): 0
- Plant response rating, Barnyardgrass (Flood) (barnyardgrass [5]): 0
- Plant response rating, Foxtail, Green (green foxtail [6]; [24]): 40
- Plant response rating, Foxtail, Green (green foxtail [6]; [25]): 90
- Kochia plant response rating (kochia [7]; 500 g ai/ha): 90
- Kochia plant response rating (kochia [7]; Test C, 125 g ai/ha): 60
- Soybean plant response rating (soybean [8]; 500 g ai/ha): 70
- Soybean plant response rating (soybean [8]; Test C, 125 g ai/ha): 10
- Plant response rating, Galium (galium; [24]): 70
- Plant response rating, Galium (galium; [25]): 100
- Plant response rating, Corn (corn [9]; [24]): 10
- Plant response rating, Corn (corn [9]; [25]): 30
- Ryegrass, Italian plant response rating (ryegrass, Italian [10]; 500 g ai/ha): 90
- Ryegrass, Italian plant response rating (ryegrass, Italian [10]; Test C, 125 g ai/ha): 70
- Plant response rating, Ryegrass, Italian (ryegrass, Italian [11]): 0
- Wheat plant response rating (wheat [12]; 500 g ai/ha): 40
- Wheat plant response rating (wheat [12]; Test C, 125 g ai/ha): 0
- Plant response rating, Blackgrass (blackgrass [13]; [24]): 10
- Plant response rating, Blackgrass (blackgrass [13]; [25]): 80
- Plant response rating, Ragweed (ragweed [14]): 40
- Plant response rating, Barnyardgrass (barnyardgrass [15]): 100
- Barnyardgrass plant response rating (barnyardgrass [15]): 40
- Plant response rating, Pigweed, Palmer (pigweed, palmer [16]): 90
- Plant response rating, Wheat (wheat [17]): 10
- Foxtail, Green plant response rating (green foxtail [18]; 500 g ai/ha): 100
- Foxtail, Green plant response rating (green foxtail [18]; Test C, 125 g ai/ha): 100
- Plant response rating, Sedge, Umbrella (Flood) (sedge, umbrella): 40
- Plant response rating, Rice (Flood) (rice): 0
- Plant response rating, Barnyardgrass (barnyardgrass [19]; [24]): 30
- Plant response rating, Barnyardgrass (barnyardgrass [19]; [25]): 70
- Plant response rating, Soybean (soybean [20]): 100
- Corn plant response rating (corn [21]; 500 g ai/ha): 10
- Corn plant response rating (corn [21]; Test C, 125 g ai/ha): 0
- Oat, Wild plant response rating (oat, wild [22]; 500 g ai/ha): 80
- Oat, Wild plant response rating (oat, wild [22]; Test C, 125 g ai/ha): 20
- Plant response rating, Kochia (kochia [23]): 70
